Source: paper PMC12154575, “Azvudine Suppresses Epithelial–Mesenchymal Transition in Hepatocellular Carcinoma by Targeting the Notch–HEY Signalling Pathway” (International Journal of Molecular Sciences, 2025)

Biological target: T1, Jagged1 (Homo sapiens, UniProt P78504)
T1 construct: gene JAG1; full-length extracellular domain (C2 to EGF16, 1277-JG-050, R&D Systems) tagged with an Fc-tag (Jagged1-Fc)
Assay: label-free microscale thermophoresis (MST)
Format: binding

T1 sequence (P78504 34-1067 limits assumed): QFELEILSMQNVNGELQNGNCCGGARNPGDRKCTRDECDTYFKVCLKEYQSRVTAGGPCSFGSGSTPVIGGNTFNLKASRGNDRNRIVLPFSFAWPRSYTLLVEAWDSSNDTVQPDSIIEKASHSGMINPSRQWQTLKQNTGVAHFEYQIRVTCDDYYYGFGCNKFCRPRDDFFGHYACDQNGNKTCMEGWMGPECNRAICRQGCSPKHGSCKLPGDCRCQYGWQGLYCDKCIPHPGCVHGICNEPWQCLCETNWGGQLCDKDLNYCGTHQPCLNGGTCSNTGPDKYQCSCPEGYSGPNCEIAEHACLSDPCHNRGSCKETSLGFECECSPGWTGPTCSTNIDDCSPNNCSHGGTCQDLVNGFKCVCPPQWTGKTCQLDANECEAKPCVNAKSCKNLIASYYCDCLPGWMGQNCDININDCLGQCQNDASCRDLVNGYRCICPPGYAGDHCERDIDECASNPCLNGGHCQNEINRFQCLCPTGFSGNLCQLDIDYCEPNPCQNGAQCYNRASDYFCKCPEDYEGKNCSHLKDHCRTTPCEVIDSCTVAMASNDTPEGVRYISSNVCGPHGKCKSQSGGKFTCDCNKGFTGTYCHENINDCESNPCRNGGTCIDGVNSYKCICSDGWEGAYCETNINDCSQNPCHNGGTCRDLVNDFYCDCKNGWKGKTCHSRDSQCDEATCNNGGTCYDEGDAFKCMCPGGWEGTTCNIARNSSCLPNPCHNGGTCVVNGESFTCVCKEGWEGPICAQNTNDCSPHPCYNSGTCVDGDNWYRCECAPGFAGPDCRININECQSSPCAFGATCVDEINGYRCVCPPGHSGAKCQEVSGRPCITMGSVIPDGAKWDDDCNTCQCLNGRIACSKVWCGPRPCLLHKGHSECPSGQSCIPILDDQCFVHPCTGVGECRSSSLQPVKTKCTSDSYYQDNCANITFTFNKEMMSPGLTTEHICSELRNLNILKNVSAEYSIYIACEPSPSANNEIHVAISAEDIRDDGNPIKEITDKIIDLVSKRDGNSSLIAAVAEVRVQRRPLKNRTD

Kd: 28.4 ± 6.6 µM
SMILES: [N-]=[N+]=N[C@]1(CO)O[C@@H](n2ccc(N)nc2=O)[C@@H](F)[C@@H]1O [FNC, 2′-deoxy-2′-β-fluoro-4′-azidocytidine]
